Test results as given in ChEMBL document CHEMBL1201862, “PubChem BioAssay data set” (2004).
Activity calls are given as the source filed them.

How the values were obtained:
[1] = reduction of Shn3 3'UTR-driven luciferase in osteoblasts – cell-based, Clone20 osteoblasts, firefly luciferase, cherry-picked, dose response (AID 624132); assay type: functional;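 also: firefly luciferase luminescence from reporter carrying the Shn3 3'UTR in osteoblasts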
[2] = loss of viability in HepG2 cells – cell-based, CellTiter-Glo, cherry-picked, cytotoxicity control for Shn3 inhibitor project, dose response (AID 624134); assay type: functional
[3] = non-specific 3'UTR reporter inhibition in Clone20-Shn3RL – cell-based, Renilla luciferase, cherry-picked, counter-screen for Shn3 inhibitor project, dose response (AID 624133); assay type: functional
[4] = blockers of HIV-1 ZM109 envelope-driven cell-cell fusion – HeLa effector, CEM target cells, luciferase, cherry-pick, dose response (AID 652058); assay type: functional, cell-based;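 also: luciferase signal from HIV-1 Env mediated cell-cell fusion of effector and target cells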
[5] = HIV-1 AD8 envelope cell-cell fusion blockers – cherry-pick, dose response (AID 652062); assay type: functional, cell-based;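 also: luciferase signal from cell-cell fusion driven by HIV-1 clade B AD8 Env; potency is for inhibitors of fusion seen as a drop in luminescence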
[6] = Luminescence Cell-Based Dose Confirmation HTS to Identify Activators of 5'UTR Stem-Loop Driven Alpha-Synuclein mRNA Translation in H4 Neuroglioblastoma Cells. [Related pubchem assays: 1829 (Project Summary), 1814 (Primary HTS)]; assay type: functional
[7] = Luminescence Cell-Based Dose Response HTS to Identify Activators of Luciferase Translation or Activity in H4 […] Cells. [Related pubchem assays: 1829 (Project Summary), 1814 (Primary HTS)]; assay type: functional
H4 = experiment: Luminescence Cell-Based Dose Response HTS to Identify Activators of 5'UTR Stem-Loop Driven Prion Protein mRNA Translation in H4 Neuroglioblastoma Cells. [Related pubchem assays: 1829 (Project Summary), 1814 (Primary HTS)]; assay type: functional; conditions: Homo sapiens
[8] = NIH-3T3 fibroblast cytotoxicity, dose response, cytotoxicity control, cell-based, fluorescence, Alamar Blue, secondary assay (AID 2327); assay type: functional;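 also: NIH-3T3 mouse fibroblasts cultured with fluconazole at 8 µg/mL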
[9] = fluconazole-exposed Candida albicans growth modulators – fluorescence, retest, confirmation (AID 2467); assay type: functional, cell-based
[10] = luciferase reporter signal suppression in cells – H4 neuroglioma cells, luminescence, dose response (AID 1990); assay type: functional, cell-based
[11] = Luminescence Cell-Based Dose Response HTS to Identify Inhibitors of 5'UTR Stem-Loop Driven Prion Protein mRNA Translation in H4 Neuroglioblastoma Cells. [Related pubchem assays: 1827 (Project Summary), 1813 (Primary HTS)]; assay type: functional
[12] = alpha-synuclein stem-loop luciferase translation blockers – H4 neuroglioma cells, luminescence, confirmation (AID 1988); assay type: functional, cell-based
[13] = microbe, parasite or virus in culture; assay type: functional; conditions: Mycobacterium tuberculosis
[14] = Luminescence Cell-Based Dose Retest to Confirm Inhibitors of Cancer Stem Cells. [Related pubchem assays (depositor defined):AID2717, AID2721]; assay type: functional; conditions: Homo sapiens
[15] = target: Induced myeloid leukemia cell differentiation protein Mcl-1 (Homo sapiens, UniProt Q07820); assay type: functional
Induced myeloid leukemia cell differentiation protein Mcl-1, sequence (Q07820 whole entry, the tested form may be a part): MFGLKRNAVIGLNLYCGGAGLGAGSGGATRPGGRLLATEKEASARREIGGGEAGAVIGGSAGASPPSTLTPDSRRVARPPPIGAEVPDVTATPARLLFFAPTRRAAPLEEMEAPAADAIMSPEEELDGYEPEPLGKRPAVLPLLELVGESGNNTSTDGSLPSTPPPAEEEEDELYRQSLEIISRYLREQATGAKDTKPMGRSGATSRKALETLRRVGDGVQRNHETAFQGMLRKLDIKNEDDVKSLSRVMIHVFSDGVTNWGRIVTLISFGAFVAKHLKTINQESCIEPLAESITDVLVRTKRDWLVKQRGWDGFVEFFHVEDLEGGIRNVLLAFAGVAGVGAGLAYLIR

[16] = target: T1, Carboxy-terminal domain RNA polymerase II polypeptide A small phosphatase 1 (Homo sapiens, UniProt Q9GZU7); experiment: CTDSP1 inhibitors, concentration-response, biochemical, absorbance readout, ultra-high-throughput screen actives (AID 540297); assay type: functional
T1 sequence (Q9GZU7 whole entry): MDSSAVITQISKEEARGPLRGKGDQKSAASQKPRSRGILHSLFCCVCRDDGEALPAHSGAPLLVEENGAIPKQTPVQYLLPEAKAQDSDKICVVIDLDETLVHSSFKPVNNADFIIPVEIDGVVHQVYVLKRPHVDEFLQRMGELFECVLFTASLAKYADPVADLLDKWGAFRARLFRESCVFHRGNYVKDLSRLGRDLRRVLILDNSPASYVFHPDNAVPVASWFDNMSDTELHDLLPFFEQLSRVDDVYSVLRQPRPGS

[17] = target: T2, Heat shock factor protein 1 (Mus musculus, UniProt P38532); experiment: enhancement of HSF1-driven luciferase signal – cell-based, NIH3T3, luminescence, dose retest, confirmation (AID 435004); assay type: functional;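 also: stress induced by proteasome inhibitor MG132 added 30 min after compound; luciferase reporter driven by HSF1 response element in NIH3T3 cells; actives raise luminescence as potentiators of the MG132 stress response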
T2 sequence (P38532 whole entry): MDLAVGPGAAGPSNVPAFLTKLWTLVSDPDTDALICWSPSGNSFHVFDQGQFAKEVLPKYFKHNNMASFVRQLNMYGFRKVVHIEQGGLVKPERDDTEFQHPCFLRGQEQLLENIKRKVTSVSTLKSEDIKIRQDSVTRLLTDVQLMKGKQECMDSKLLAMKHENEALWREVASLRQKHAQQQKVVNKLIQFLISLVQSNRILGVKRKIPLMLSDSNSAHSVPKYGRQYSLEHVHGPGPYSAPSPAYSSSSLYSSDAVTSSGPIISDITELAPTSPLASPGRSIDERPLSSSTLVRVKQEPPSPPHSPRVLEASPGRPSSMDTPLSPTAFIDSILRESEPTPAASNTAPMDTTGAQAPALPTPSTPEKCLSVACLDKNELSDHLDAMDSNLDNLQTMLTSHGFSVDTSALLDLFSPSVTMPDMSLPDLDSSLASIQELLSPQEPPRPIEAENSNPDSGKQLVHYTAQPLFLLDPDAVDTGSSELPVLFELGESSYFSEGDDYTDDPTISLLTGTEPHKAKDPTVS

[18] = blockers of HIV-1 envelope-mediated cell-cell fusion – cherry-pick, dose response (AID 652057); assay type: functional, cell-based
Paired box protein Pax-8 = Paired box protein Pax-8 (Homo sapiens, UniProt Q06710); experiment: PAX8 transcriptional activity inhibition in RMG-I – RMG-I cells, luciferase, cherry-pick, dose response (AID 687027); assay type: functional, cell-based;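 also: luciferase reporter driven by Pax8 target thyroperoxidase promoter measured by SteadyGlo luminescence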
Paired box protein Pax-8, sequence (Q06710 whole entry): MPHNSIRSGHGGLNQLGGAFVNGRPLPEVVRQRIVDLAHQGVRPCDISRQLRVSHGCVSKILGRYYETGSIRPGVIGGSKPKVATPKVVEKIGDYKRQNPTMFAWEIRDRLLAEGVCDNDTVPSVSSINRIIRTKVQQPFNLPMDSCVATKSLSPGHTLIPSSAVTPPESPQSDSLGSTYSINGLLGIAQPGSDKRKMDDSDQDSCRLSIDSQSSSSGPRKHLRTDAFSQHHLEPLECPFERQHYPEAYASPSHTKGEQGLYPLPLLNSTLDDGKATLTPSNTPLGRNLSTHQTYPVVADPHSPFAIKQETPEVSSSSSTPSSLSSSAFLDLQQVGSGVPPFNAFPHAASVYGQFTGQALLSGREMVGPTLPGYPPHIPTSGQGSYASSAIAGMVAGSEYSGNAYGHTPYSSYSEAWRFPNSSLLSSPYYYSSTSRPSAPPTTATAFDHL

[19] = OVCAR8 cell viability loss – plate reader, dry powder samples, PAX8 project, dose response (AID 743197); assay type: functional, cell-based; conditions: OVCAR-8
[20] = growth inhibition of yeast DHODH-expressing 3D7 parasites – SYBR Green, dry powder samples, dose response (AID 1159570); assay type: functional, cell-based;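 also: parasite growth measured after 72 hours of compound exposure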
[21] = P. falciparum Dd2 growth inhibitors, dose response, SYBR Green, cherry-picked samples (AID 1159567); assay type: functional, cell-based
[22] = Dd2 malaria parasite growth inhibition potency – SYBR Green, dry powder samples, dose response (AID 1159566); assay type: functional, cell-based;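 also: potency for growth inhibition with lower SYBR green DNA signal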
[23] = growth inhibition of PfATP4-mutant resistant parasites – NITD609-resistant line, SYBR Green, dry powder, dose response (AID 1159571); assay type: functional, cell-based;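 also: parasites synchronized at ring stage by sorbitol before testing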

Cn1nc(-c2ccc(OCC(=O)N3CCN(Cc4ccccc4)CC3)cc2)c2ccccc2c1=O
AC50 [1]: 2.1 µM (active) | AC50 [2]: 32.4 µM (active) | AC50 [3]: 4.74 µM (active) | AC50 [4]: 27.4 µM (active) | AC50 [5]: 23.5 µM (active)

COc1ccc(NC(=O)C2C(=O)N(CCO)C3(C)CC2c2ccccc2O3)cc1 (stereo unspecified)
EC50 [6]: 7.35 µM (active) | EC50 [7]: 14.8 µM (active) | EC50 (H4): 10.2 µM (active)

CCc1ccc(-c2csc3ncn(Cc4ccc(C(=O)O)cc4)c(=O)c23)cc1
EC50 [8]: > 150 µM (inconclusive) | EC50 [9]: > 38 µM (not active)

COc1ccc(Nc2nc(N)c([N+](=O)[O-])c(NC3CCCCC3)n2)cc1
EC50 [10]: 14.8 µM (active) | EC50 [11]: 10.7 µM (active) | EC50 [12]: 17.2 µM (active) | CC50 [13]: 32 µM (active) | AC50 [14]: 3.53 µM (active)

Cc1ccc(Oc2cnn(-c3ccccc3)c(=O)c2Br)cc1
EC50 [6]: > 120 µM (not active) | EC50 [7]: 27 µM (active) | EC50 (H4): 30.7 µM (active)

O=C1/C(=C\Nc2ccc(OC(F)(F)F)cc2)CCN1c1ncccn1
EC50 [6]: 20.4 µM (active) | EC50 [7]: 23.7 µM (active) | EC50 (H4): 14.6 µM (active)

Nc1ccc(Sc2ccc([N+](=O)[O-])cc2)cc1
EC50 [8]: > 160 µM (inactive) | EC50 [9]: > 38 µM (not active)

CCOc1ccccc1NC(=O)/C=C/C(N)=O
IC50 [15]: 1.1 µM (not active)

CC(=O)Nc1ccc(N2CC(C)(C)C2=O)cc1
EC50 [8]: 38.4 µM (active) | EC50 [9]: > 38 µM (not active)

CCN(CC)CCN(C(=O)c1cc2c(ccc3ccccc32)oc1=O)c1nc2cc3c(cc2s1)OCCO3
EC50 [10]: > 120 µM (not active) | EC50 [11]: > 120 µM (inconclusive) | EC50 [12]: 9.65 µM (active)

Cc1sc2c(c1C)CN(Cc1ccncc1)CN2C(=O)c1ccco1
EC50 [6]: > 120 µM (not active) | EC50 [7]: 11 µM (active) | EC50 (H4): > 60 µM (not active)

CC1CCN(C(c2ccc(N(C)C)cc2)c2nnnn2C(C)(C)C)CC1 (stereo unspecified)
IC50 [15]: > 54 µM (active)

COc1cccc2sc(NNC(=O)c3nc4ccccc4s3)nc12
EC50 [10]: > 120 µM (not active) | EC50 [11]: 16.5 µM (active) | EC50 [12]: > 120 µM (not active)

Cc1cc(C(=O)COC(=O)c2cc(Cl)c(O)c(Cl)c2)c(C)n1C
IC50 [16]: 11.5 µM (active)

Cc1c(Cl)ccc(S(=O)(=O)Nc2cccnc2)c1Cl
EC50 [8]: > 150 µM (inactive) | EC50 [9]: > 38 µM (not active)

Nc1nc(Nc2ccccc2)nc(NCc2ccccc2)c1[N+](=O)[O-]
EC50 [10]: 17 µM (active) | EC50 [11]: > 120 µM (not active) | EC50 [12]: 44.7 µM (active)

CC1CCN(c2ccc(S(=O)(=O)Nc3cc(C(=O)O)cc(C(=O)O)c3)cc2[N+](=O)[O-])CC1
IC50 [16]: 9.99 µM (active)

O=C1NC(=S)N/C1=C/c1cccc2ccccc12
EC50 [6]: 17.7 µM (active) | EC50 [7]: 8.63 µM (active) | EC50 (H4): > 120 µM (not active)

O=C(C[N+]12CCC(CC1)C(C(O)(c1ccccc1)c1ccccc1)C2)c1ccc(Br)cc1 (stereo unspecified)
EC50 [8]: > 160 µM (inconclusive) | EC50 [9]: 1.45 µM (active)

Cc1cccc(OCCCC(=O)Nc2ccc(N(C)C)cc2)c1
IC50 [15]: < 0.4 µM (active)

CCOC(=O)/C=C1\CN(CCC(C)C)S(=O)(=O)c2ccccc21
IC50 [16]: 45.3 µM (active)

Cc1cc(C)n(CC(C)NC(=O)c2cc(COc3c(F)cccc3F)on2)n1 (stereo unspecified)
EC50 [10]: > 120 µM (not active) | EC50 [11]: > 120 µM (not active) | EC50 [12]: > 120 µM (not active)

CCCCCCNC(=O)CCNS(=O)(=O)c1ccc(C)cc1
EC50 [10]: > 120 µM (not active) | EC50 [11]: > 120 µM (not active) | EC50 [12]: > 120 µM (not active)

CCCCn1c(=O)[nH]c(=O)c2c1nc(-c1ccc(-c3ccccc3Br)o1)n2CC
EC50 [8]: > 150 µM (inconclusive) | EC50 [9]: > 38 µM (not active)

N#Cc1ccc(OCC(=O)Nc2cccc(S(=O)(=O)NC3=NCCCCC3)c2)cc1
IC50 [16]: 11.6 µM (active)

CC[N+]1(CC(O)COC2CC(C)CC(C)(C)C2)CCOCC1 (stereo unspecified)
IC50 [16]: 11.3 µM (active)

O=C(N/N=C/c1ccncc1)c1cc2ccccc2cc1O
EC50 [8]: > 150 µM (inactive) | EC50 [9]: > 38 µM (not active) | EC50 [17]: 106 µM (active)

COc1cccc(S(=O)(=O)N(C)C[C@H]2Oc3cc(C4=CCCC4)ccc3S(=O)(=O)N([C@H](C)CO)C[C@@H]2C)c1
AC50 [18]: 34.2 µM (active)

C[C@H]1CN([C@@H](C)CO)C(=O)c2cc(NC(=O)Nc3ccc4c(c3)OCO4)ccc2O[C@H]1CN(C)S(=O)(=O)c1cccs1
AC50 [18]: 6.19 µM (active) | AC50 [4]: 24.7 µM (active) | AC50 [5]: 29.3 µM (active)

C[C@@H]1CN([C@@H](C)CO)C(=O)c2cc(NC(=O)Nc3ccc(C(F)(F)F)cc3)ccc2O[C@@H](C)CCCCO[C@@H]1CN(C)Cc1ccccc1
AC50 (Paired box protein Pax-8): 9.49 µM (active) | AC50 [19]: > 60 µM (inactive)

CCCNC(=O)C[C@@H]1C[C@H]2c3cc(NC(=O)Cc4ccncc4)ccc3O[C@H]2[C@H](CO)O1
AC50 [5]: 39.4 µM (active)

C[C@H]1CN([C@@H](C)CO)C(=O)c2c(c3ccccc3n2C)-c2ccccc2CO[C@H]1CN(C)C(=O)Cc1ccccc1
AC50 [18]: < 0.26 µM (active) | AC50 [4]: < 0.26 µM (active) | AC50 [5]: < 0.26 µM (active)

O=C(C[C@@H]1C=C[C@@H](NC(=O)Nc2ccc3c(c2)OCO3)[C@H](CO)O1)NCc1ccc(F)cc1
AC50 [5]: 4.77 µM (active)

O=C(N/N=C/c1ccc(-c2ccccc2C(=O)O)o1)c1cccs1
IC50 [15]: 5.27 µM (active) | IC50 [16]: 4.6 µM (active)

CN1C(=O)/C(=C2/C(=O)Nc3ccccc32)S/C1=N\c1ccc(Cl)cc1
EC50 [6]: 12.7 µM (active) | EC50 [7]: 46.1 µM (active) | EC50 (H4): 32.3 µM (active)

CC(C)(C)[S@@+]([O-])N1Cc2cc(C(=O)N[C@@H]3CCN(Cc4ccccc4)C3)nc(-c3cccc(-c4cccnc4)c3)c2[C@H]1CCO
AC50 [20]: 3.42 µM (active) | AC50 [21]: 1.94 µM (active) | AC50 [22]: 2.01 µM (active) | AC50 [23]: 2.58 µM (active)

CN1c2ccc(C#Cc3cccnc3)cc2[C@H]2[C@H](CCN2S(=O)(=O)c2ccc(F)cc2)[C@H]1CO
AC50 [20]: 1.33 µM (active) | AC50 [21]: 1.7 µM (active) | AC50 [22]: 1.05 µM (active) | AC50 [23]: 1.16 µM (active)

COc1ccc(NC(=O)N2CC3(C2)CN(C(=O)C2CCC2)[C@H](CO)c2c3c3ccc(OC)cc3n2C)cc1
AC50 [20]: 0.22 µM (active) | AC50 [21]: 2.21 µM (active) | AC50 [22]: 0.437 µM (active) | AC50 [23]: 0.372 µM (active)
